The text below walks through data of US10570184B2, “GLP-1/glucagon receptor co-agonists for medical use” (Novo Nordisk A/S, priority 2014, dated 2020).

This assay concerns the target T1, human GLP-1 receptor (Homo sapiens, UniProt P43220).
T1 construct: expressed in transfected cells; host or cells: membranes of BHK cells (parent BHKTS13), clone FCW467-12A
The assay can be described thus: Assay (II)(a) GLP-1 receptor binding, 125I-GLP-1 displacement SPA on BHK membranes. The note with it: without presence of serum albumin; read-out: GLP-1R IC50 (nM) [Assay (II)(a)]. The gist of the method: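 Membranes from BHK cells (clone FCW467-12A) stably expressing human GLP-1R were incubated with serially diluted compounds (8×10EE-13 to 8×10EE-7 M before addition) and [125I]-GLP-1-(7-36)NH2 with WGA SPA beads, 2 h at 30° C, pH 7.4. IC50 taken from displacement by non-linear regression. Run at ≤0.001% or 2.0% final serum albumin.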

Starred links: 1 amine or outer side, 2 acyl side, 3 side chain; linkers in the order of their positions; H or OH if unused. Non-standard residues stand in square brackets, D forms with d. Residues, ends and D or L forms follow the SMILES beside them. Groups on a side chain read outwards from the residue. *: point of attachment. C18 diacid = O=C(O)CCCCCCCCCCCCCCCCC(=O)*; γGlu = O=C(O)[C@H](CCC(=O)[*:2])N[*:1]; Ac4c = NC1(C(=O)O)CCC1; AEEA = NCCOCCOCC(=O)O; Aib = CC(C)(N)C(=O)O

T1 sequence (P43220 24-463): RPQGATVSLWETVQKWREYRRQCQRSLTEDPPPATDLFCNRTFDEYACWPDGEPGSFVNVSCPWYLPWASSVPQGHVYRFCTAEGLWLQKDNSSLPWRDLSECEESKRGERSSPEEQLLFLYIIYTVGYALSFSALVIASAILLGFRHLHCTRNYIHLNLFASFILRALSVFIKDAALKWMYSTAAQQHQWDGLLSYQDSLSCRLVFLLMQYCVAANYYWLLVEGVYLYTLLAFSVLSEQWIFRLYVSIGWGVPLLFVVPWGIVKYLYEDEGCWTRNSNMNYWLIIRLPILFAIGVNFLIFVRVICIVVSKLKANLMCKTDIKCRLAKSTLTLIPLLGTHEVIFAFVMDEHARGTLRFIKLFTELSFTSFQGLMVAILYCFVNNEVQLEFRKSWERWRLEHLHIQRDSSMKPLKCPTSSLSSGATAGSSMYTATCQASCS

For `CC[C@H](C)[C@H](NC(=O)[C@H](CC(C)C)NC(=O)[C@H](Cc1c[nH]c2ccccc12)NC(=O)[C@H](C)NC(=O)[C@@H](NC(=O)[C@H](Cc1ccccc1)NC(=O)[C@H](CC(=O)O)NC(=O)[C@H](CCC(N)=O)NC(=O)[C@H](C)NC(=O)[C@H](CCCNC(=N)N)NC(=O)[C@H](CCCNC(=N)N)NC(=O)[C@H](CO)NC(=O)[C@H](CCC(=O)O)NC(=O)[C@H](CC(C)C)NC(=O)[C@H](Cc1ccc(O)cc1)NC(=O)[C@H](CCCCN)NC(=O)[C@H](CO)NC(=O)[C@H](Cc1ccc(O)cc1)NC(=O)[C@H](CC(=O)O)NC(=O)[C@H](CO)NC(=O)[C@@H](NC(=O)[C@H](Cc1ccccc1)NC(=O)[C@@H](NC(=O)CNC(=O)[C@H](CCC(N)=O)NC(=O)C(C)(C)NC(=O)[C@@H](N)Cc1c[nH]cn1)[C@@H](C)O)[C@@H](C)O)C(C)C)C(=O)N[C@@H](CCCCNC(=O)CC[C@H](NC(=O)CC[C@H](NC(=O)COCCOCCNC(=O)COCCOCCNC(=O)CC[C@H](NC(=O)CCCCCCCCCCCCCCCCC(=O)O)C(=O)O)C(=O)O)C(=O)O)C(=O)N[C@H](C(N)=O)[C@@H](C)O` [Chem. 34, N^ε28-[(4S)-4-carboxy-4-[[(4S)-4-carboxy-4-[[2-[2-[2-[[2-[2-[2-[[(4S)-4-carboxy-4-(17-carboxyheptadecanoylamino)butanoyl]amino]ethoxy]ethoxy]acetyl]amino]ethoxy]ethoxy]acetyl]amino]butanoyl]amino]butanoyl]-[Aib2,Glu15,Ala24,Ile27,Lys28]-Glucagon amide] (H-H[Aib]QGTFTSDYSKYLESRRAQDFVAWLIK([γGlu-γGlu-AEEA-AEEA-γGlu-C18 diacid])T-NH2), the IC50 is 2.2 nM. As to `CC[C@H](C)[C@H](NC(=O)[C@H](CC(C)C)NC(=O)[C@H](Cc1c[nH]c2ccccc12)NC(=O)[C@H](CCC(N)=O)NC(=O)[C@@H](NC(=O)[C@H](Cc1ccccc1)NC(=O)[C@H](CCC(=O)O)NC(=O)[C@H](CCCNC(=N)N)NC(=O)[C@H](C)NC(=O)[C@H](CCCNC(=N)N)NC(=O)[C@H](CCCNC(=N)N)NC(=O)[C@H](CO)NC(=O)[C@H](CCC(=O)O)NC(=O)[C@H](CC(C)C)NC(=O)[C@H](Cc1ccc(O)cc1)NC(=O)[C@H](CCCCN)NC(=O)[C@H](CO)NC(=O)[C@H](CC(C)C)NC(=O)[C@H](CC(=O)O)NC(=O)[C@H](CO)NC(=O)[C@@H](NC(=O)[C@H](Cc1ccccc1)NC(=O)[C@@H](NC(=O)CNC(=O)[C@H](CCC(N)=O)NC(=O)C(C)(C)NC(=O)[C@@H](N)Cc1c[nH]cn1)[C@@H](C)O)[C@@H](C)O)C(C)C)C(=O)N[C@@H](CCCCNC(=O)CC[C@H](NC(=O)CC[C@H](NC(=O)COCCOCCNC(=O)COCCOCCNC(=O)CC[C@H](NC(=O)CC[C@H](NC(=O)CCCCCCCCCCCCCCCCC(=O)O)C(=O)O)C(=O)O)C(=O)O)C(=O)O)C(=O)N[C@H](C(N)=O)[C@@H](C)O` [Chem. 25, N^ε28-[(4S)-4-carboxy-4-[[(4S)-4-carboxy-4-[[2-[2-[2-[[2-[2-[2-[[(4S)-4-carboxy-4-[[(4S)-4-carboxy-4-(17-carboxyheptadecanoylamino)butanoyl]amino]butanoyl]amino]ethoxy]ethoxy]acetyl]amino]ethoxy]ethoxy]acetyl]amino]butanoyl]amino]butanoyl]-[Aib2,Leu10,Glu15,Arg20,Glu21,Ile27,Lys28]-Glucagon amide] (H-H[Aib]QGTFTSDLSKYLESRRAREFVQWLIK([γGlu-γGlu-AEEA-AEEA-γGlu-γGlu-C18 diacid])T-NH2; N-terminus assumed), the 50% inhibitory concentration (IC50) was 0.1 nM. In the case of `CC[C@H](C)[C@H](NC(=O)[C@H](CC(C)C)NC(=O)[C@H](Cc1c[nH]c2ccccc12)NC(=O)[C@H](C)NC(=O)[C@@H](NC(=O)[C@H](Cc1ccccc1)NC(=O)[C@H](CC(=O)O)NC(=O)[C@H](CCCNC(=N)N)NC(=O)[C@H](C)NC(=O)[C@H](CCCNC(=N)N)NC(=O)[C@H](CCCNC(=N)N)NC(=O)[C@H](C)NC(=O)[C@H](CC(=O)O)NC(=O)[C@H](CC(C)C)NC(=O)[C@H](Cc1ccc(O)cc1)NC(=O)[C@H](CCCCN)NC(=O)[C@H](CO)NC(=O)[C@H](Cc1ccc(O)cc1)NC(=O)[C@H](CC(=O)O)NC(=O)[C@H](CO)NC(=O)[C@@H](NC(=O)[C@H](Cc1ccccc1)NC(=O)[C@@H](NC(=O)CNC(=O)[C@H](CCC(N)=O)NC(=O)C(C)(C)NC(=O)[C@@H](N)Cc1c[nH]cn1)[C@@H](C)O)[C@@H](C)O)C(C)C)C(=O)N[C@@H](CCCCNC(=O)CC[C@H](NC(=O)CC[C@H](NC(=O)COCCOCCNC(=O)COCCOCCNC(=O)CC[C@H](NC(=O)CCCCCCCCCCCCCCCCC(=O)O)C(=O)O)C(=O)O)C(=O)O)C(=O)N[C@H](C(N)=O)[C@@H](C)O` [Chem. 32, N^ε28-[(4S)-4-carboxy-4-[[(4S)-4-carboxy-4-[[2-[2-[2-[[2-[2-[2-[[(4S)-4-carboxy-4-(17-carboxyheptadecanoylamino)butanoyl]amino]ethoxy]ethoxy]acetyl]amino]ethoxy]ethoxy]acetyl]amino]butanoyl]amino]butanoyl]-[Aib2,Ala16,Arg20,Ala24,Ile27,Lys28]-Glucagon amide] (H-H[Aib]QGTFTSDYSKYLDARRARDFVAWLIK([γGlu-γGlu-AEEA-AEEA-γGlu-C18 diacid])T-NH2), the half-maximal inhibitory concentration (IC50) amounted to 0.3 nM. For `CC[C@H](C)[C@H](NC(=O)[C@H](CC(C)C)NC(=O)[C@H](Cc1c[nH]c2ccccc12)NC(=O)[C@H](CCC(N)=O)NC(=O)[C@@H](NC(=O)[C@H](Cc1ccccc1)NC(=O)[C@H](CCC(=O)O)NC(=O)[C@H](CCC(N)=O)NC(=O)[C@H](C)NC(=O)[C@H](CCCNC(=N)N)NC(=O)[C@H](CCCNC(=N)N)NC(=O)[C@H](CO)NC(=O)[C@H](CCC(=O)O)NC(=O)[C@H](CC(C)C)NC(=O)[C@H](Cc1ccc(O)cc1)NC(=O)[C@H](CCCCN)NC(=O)[C@H](CO)NC(=O)[C@H](CC(C)C)NC(=O)[C@H](CC(=O)O)NC(=O)[C@H](CO)NC(=O)[C@@H](NC(=O)[C@H](Cc1ccccc1)NC(=O)[C@@H](NC(=O)CNC(=O)[C@H](CCC(N)=O)NC(=O)C1(NC(=O)[C@@H](N)Cc2c[nH]cn2)CCC1)[C@@H](C)O)[C@@H](C)O)C(C)C)C(=O)N[C@@H](CCCCNC(=O)CC[C@H](NC(=O)COCCOCCNC(=O)COCCOCCNC(=O)CC[C@H](NC(=O)CC[C@H](NC(=O)CCCCCCCCCCCCCCCCC(=O)O)C(=O)O)C(=O)O)C(=O)O)C(=O)N[C@H](C(N)=O)[C@@H](C)O` [Chem. 38, N^ε28-[(4S)-4-carboxy-4-[[2-[2-[2-[[2-[2-[2-[[(4S)-4-carboxy-4-[[(4S)-4-carboxy-4-(17-carboxyheptadecanoylamino)butanoyl]amino]butanoyl]amino]ethoxy]ethoxy]acetyl]amino]ethoxy]ethoxy]acetyl]amino]butanoyl]-[Acb2,Leu10,Glu15,Glu21,Ile27,Lys28]-Glucagon amide] (H-H[Ac4c]QGTFTSDLSKYLESRRAQEFVQWLIK([γGlu-AEEA-AEEA-γGlu-γGlu-C18 diacid])T-NH2; N-terminus assumed), the concentration for half-maximal inhibition (IC50) is 0.3 nM.

By IC50 is commonly meant the concentration that inhibits the measured activity by half.
